The text below walks through data of ChEMBL document CHEMBL3393020, “Biofilm inhibition of linezolid-like Schiff bases: synthesis, biological activity, molecular docking and in silico ADME prediction” (Bioorg Med Chem Lett, 2015).

In brackets after ≈: the same amount, converted by molar mass. Activity calls are given as the source filed them. The calls are words filed in the database; no cut-off is given here.

Series [1] in a line: Retardation factor of the compound. It is filed as physicochemical.
For series [2], the system named is Escherichia coli. The series can be described thus: Antibacterial activity against Escherichia coli NCIM-2256 incubated for 24 hrs by two fold serial dilution method. It is filed as functional. The following applies: NCIM-2256, 24 h.
Series [3] relates to Bacillus subtilis. In words: Antibacterial activity against Bacillus subtilis NCIM-2063 incubated for 24 hrs by two fold serial dilution method. It is filed as functional. To be noted: NCIM-2063, 24 h.
The test system of series [4] is Pseudomonas aeruginosa. In words: Antibacterial activity against Pseudomonas aeruginosa NCIM-2036 incubated for 24 hrs by two fold serial dilution method. The following applies: NCIM-2036, 24 h. It is filed as functional.
Series [5] concerns Pseudomonas aeruginosa. The series can be described thus: Inhibition of biofilm formation of Pseudomonas aeruginosa PAO1 incubated for 18 hrs by crystal violet staining based spectroscopy. It is filed as functional, organism-based. To be noted: PAO1, 18 h.
Series [6] has as its system Pseudomonas aeruginosa. The series can be described thus: Inhibition of biofilm formation of Pseudomonas aeruginosa PAO1 incubated for 15 mins by field emission scanning electron microscopy. Type of series: functional, organism-based.
In series [7] the test system is Pseudomonas aeruginosa. The series can be described thus: Effect on planktonic cells growth of Pseudomonas aeruginosa PAO1 incubated for 15 mins by field emission scanning electron microscopy. It is filed as organism-based. To be noted: 0.25 h.

The compound `Fc1cc(/N=C/c2c(Cl)cccc2Cl)ccc1N1CCOCC1` registered a Rf in series [1] of 0.48. The minimal inhibitory concentration (MIC) in series [2] was found to be 25 µg/mL (≈ 70.8 µM); in series [3] it was 20 µg/mL (≈ 56.6 µM); in series [4], 30 µg/mL (≈ 84.9 µM). Further, in series [5], the half-inhibitory concentration (IC50) is 27.5 µM.
With `Fc1cc(/N=C/c2ccccc2)ccc1N1CCOCC1`, the Rf in series [1] is given as 0.64. The MIC in series [2] turned out to be 35 µg/mL (≈ 123 µM); in series [3] it was 30 µg/mL (≈ 106 µM); in series [4], 20 µg/mL (≈ 70.3 µM). Besides, the IC50 in series [5] stood at 39.4 µM.
As to `O=C(O)c1cn(C2CC2)c2cc(N3CCNCC3)c(F)cc2c1=O` [CIPROFLOXACIN], in series [2], the MIC stood at 25 µg/mL (≈ 75.4 µM).
In series [1], `Fc1cc(/N=C/c2ccoc2)ccc1N1CCOCC1` yielded a Rf of 0.61. Also, the minimum inhibitory concentration (MIC) worked out at 35 µg/mL (≈ 128 µM) in series [2], 40 µg/mL (≈ 146 µM) in series [3] and 30 µg/mL (≈ 109 µM) in series [4]. In series [5], the half-maximal inhibitory concentration (IC50) amounted to 35.9 µM.
Take `Oc1ccc(/C=N/c2ccc(N3CCOCC3)c(F)c2)cc1O`: in series [1], the Rf amounted to 0.59. In addition, the MIC was 30 µg/mL (≈ 94.8 µM) in series [2], 25 µg/mL (≈ 79 µM) in series [3] and 20 µg/mL (≈ 63.2 µM) in series [4]. In series [5], this compound returned an IC50 of 31.6 µM.
For `CC(=O)NC[C@H]1CN(c2ccc(N3CCOCC3)c(F)c2)C(=O)O1` [LINEZOLID], the MIC in series [2] worked out at 2 µg/mL (≈ 5.93 µM); in series [3] it was 3 µg/mL (≈ 8.89 µM); in series [4], 2.5 µg/mL (≈ 7.41 µM). This compound also yielded an IC50 in series [5] of 15.9 µM.
With `Fc1cc(/N=C/c2cc3ccccc3nc2Cl)ccc1N1CCOCC1`, the Rf in series [1] is 0.46. In series [6], the inhibition entry was “Active”. In addition, the MIC in series [2] turned out to be 10 µg/mL (≈ 27 µM); in series [3], 5 µg/mL (≈ 13.5 µM); in series [4], 2.5 µg/mL (≈ 6.76 µM). For the same compound, in series [7], the Activity entry is recorded as “Non-toxic”. For the same compound, in series [5], it took 13 µM to reach half-maximal inhibition (IC50).
Consider `Fc1cc(/N=C/c2c[nH]c3ccccc23)ccc1N1CCOCC1`, for which the Rf in series [1] stood at 0.52. Further, the MIC in series [2] stood at 40 µg/mL (≈ 124 µM); in series [3], 35 µg/mL (≈ 108 µM); in series [4], 25 µg/mL (≈ 77.3 µM). Also, half-maximal inhibition in series [5] (IC50) was put at 29.1 µM.
The compound `Cc1cccc2cc(/C=N/c3ccc(N4CCOCC4)c(F)c3)c(Cl)nc12` gave a Rf in series [1] of 0.44. Also, the inhibition entry in series [6] was “Active”. Moreover, the values for the minimum inhibitory concentration (MIC) in series [2], in series [3] and in series [4] were 10 µg/mL (≈ 26.1 µM), 10 µg/mL (≈ 26.1 µM) and 3.5 µg/mL (≈ 9.12 µM), respectively. The Activity result in series [7] is “Non-toxic”. In addition, half-maximal inhibition in series [5] (IC50) required 15.6 µM.
In series [1], `Fc1ccc(/C=N/c2ccc(N3CCOCC3)c(F)c2)cc1` returned a Rf of 0.52. Moreover, the MIC turned out to be 30 µg/mL (≈ 99.2 µM) in series [2], 20 µg/mL (≈ 66.2 µM) in series [3] and 20 µg/mL (≈ 66.2 µM) in series [4]. For the same compound, in series [5], the IC50 came to 31.1 µM.
As for `COc1ccc(/C=N/c2ccc(N3CCOCC3)c(F)c2)cc1OC`, the Rf in series [1] amounted to 0.55. For the same compound, the MIC in series [2], in series [3] and in series [4] was 20 µg/mL (≈ 58.1 µM) throughout. The midpoint of inhibition in series [5], the IC50, lay at 27.9 µM.

In general, MIC refers to the lowest concentration found to suppress growth. A word on the IC50: it is the midpoint of a concentration-inhibition curve. Read a low IC50 as higher potency.
